Data on twelve compounds can be found in article PMC7408396, “IPEC-J2 rMdr1a, a New Cell Line with Functional Expression of Rat P-glycoprotein Encoded by Rat Mdr1a for Drug Screening Purposes” (Pharmaceutics, 2020).

Molecules are shown by their SMILES.

On the set-up of data set [1]: method as in PMID 27194478. Particulars: murine / rodent animal models; cited from earlier work.
The target in data set [2] is T1, human P-gp (Homo sapiens, UniProt P08183). More on the design: expressed in transfected cells; host or cells: IPEC-J2 (porcine intestinal epithelial cells), previously established IPEC-J2 MDR1 line; method as in PMID 27194478. Particulars: MDCK II MDR1 cell monolayers; cited from earlier work.
A further data set deals with P-gp (rat Mdr1a). The experiment in a line: in vitro. Conditions: for efflux ratio at 120 min: pH 7.4, efflux ratio, Figure 5 comparison series.
The target in the next data set is T2, P-gp (human MDR1) (Homo sapiens, UniProt P08183).
T2 construct: expressed in transfected cells; host or cells: IPEC-J2 (porcine intestinal epithelial cells), previously established IPEC-J2 MDR1 line
The data set is described as follows: Bidirectional transport across IPEC-J2 MDR1 cell monolayers. Conditions: for Papp A→B at 120 min / Papp B→A at 120 min: pH 7.4, Figure 5, mean ± SEM; for Papp A→B at 120 min: read-out: apparent permeability A–B; for Papp B→A at 120 min: read-out: apparent permeability B–A; for efflux ratio at 120 min: pH 7.4, Figure 5 comparison series. Format: in vitro ADME. On the procedure: (§1) The cell monolayers were washed and pre-incubated in transport buffer consisting of 10 mM HEPES, 0.05% BSA and 0.038% sodium bicarbonate in HBSS pH 7.4 for 15 min at 37 °C on a shaking table (Unimax 2010, Heidolph, Schwabach, Germany) with a rotation of 75–90 rpm. The buffer was removed, and the transport experiments were initiated by the addition of donor solution containing radio-labelled compound in transport buffer in a concentration of 0.5 or 1 μ Ci/mL to either the apical or the basolateral chamber. […] Receiver samples were collected after 15, 30, 45, 60, 90 and 120 min from the basolateral (100 µL) or the apical chamber (50 µL), respectively.
(§2) Based on data from transport experiments, the apparent permeability coefficients (Papp) were calculated using Equation (1):(1) Papp = J/C0 = Qt/C0At where J denotes the steady-state flux (nmol·cm^−2·min^−1), C0 is the initial concentration in the donor compartment, A is the cross-sectional area of the permeable inserts (1.13 cm^2) and Qt represents the accumulated amount of drug in the receiver compartment at time t in minutes (corrected for the dilution arising from replacement of the sampled volume with blank transport buffer).

In data set [3] the target is T1, human P-gp. Particulars: IPEC-J2 MDR1 cells overexpressing human P-gp; cited from earlier work.
The subject of a further data set is rat Mdr1a P-gp. Conditions: IPEC-J2 rMdr1a monolayers.
In data set [4] the test system is IPEC-J2 mock cells. The experiment in a line: Bidirectional transport across IPEC-J2 mock cell monolayers (empty pcDNA 3.1(+) vector). Conditions: 0.4 µM zosuquidar, Supplemental Figure S2.
Data set [5] is described as follows: Bidirectional transport across IPEC-J2 wild-type (WT) cell monolayers. Conditions: pig, pH 7.4, mean ± SEM. In kind it is in vitro ADME, porcine. The method, then: as §1, §2
The test system of another data set is human MDR1. Also on record: method as in PMID 16779700. Conditions: LLC-PK1 cells transfected with human MDR1; cited from earlier work.
A further data set relates to rat Mdr1a. Also on record: method as in PMID 16779700. Particulars: LLC-PK1 cells transfected with rat Mdr1a; cited from earlier work.
For data set [6], the target named is T1, human P-gp. Also on record: expressed in transfected cells; method as in PMID 17045309. Particulars: cell monolayers overexpressing human P-gp; cited from earlier work.
The next data set relates to mouse Mdr1a. Also on record: method as in PMID 17045309. Conditions: mouse Mdr1a-transfected LLC-PK1 and MDCK monolayers; cited from earlier work.
A further data set deals with rMDR1a-transfected cells. The data set is described as follows: Puromycin selection of rMdr1a-transfected IPEC-J2 cells. In kind it is cell-based, porcine. Conditions: 2 μg/mL puromycin. The method, then:
(§3) The rat Mdr1a cDNA, codon-optimized for expression in Sus scrofa, was synthesized by Geneart (Regensburg, Germany) and inserted in the pcDNA3.1 (+) cloning vector under control of a cytomegalovirus (CMV) promoter (see Supplemental Figure S1) and purchased from Geneart (Regensburg, Germany). […] Cells were seeded on permeable Transwell® inserts (1.13 cm^2 surface area, 0.4 µm pore size) at a density of 4 × 10^4 cells/insert and cultured for 15–18 days (with culture medium change three times per week) prior to experimentation.

Data set [7] has as its system IPEC-J2 mock cells. The experiment in a line: Puromycin selection of IPEC-J2 mock cells. In kind it is cell-based, porcine. Conditions: 2 μg/mL puromycin. On the procedure: as §3
The test system of data set [8] is P-gp (rat Mdr1a and human MDR1). The data set is described as follows: in vitro. Conditions: human, pH 7.4, apparent permeability values (span over both directions), A–B and B–A, across both IPEC-J2 rMdr1a and IPEC-J2 MDR1 monolayers.
Where [9] appears, read: pH 7.4, apparent permeability A–B, IPEC-J2 rMdr1a monolayers, Figure 5, mean ± SEM.

T2 sequence (P08183 whole entry): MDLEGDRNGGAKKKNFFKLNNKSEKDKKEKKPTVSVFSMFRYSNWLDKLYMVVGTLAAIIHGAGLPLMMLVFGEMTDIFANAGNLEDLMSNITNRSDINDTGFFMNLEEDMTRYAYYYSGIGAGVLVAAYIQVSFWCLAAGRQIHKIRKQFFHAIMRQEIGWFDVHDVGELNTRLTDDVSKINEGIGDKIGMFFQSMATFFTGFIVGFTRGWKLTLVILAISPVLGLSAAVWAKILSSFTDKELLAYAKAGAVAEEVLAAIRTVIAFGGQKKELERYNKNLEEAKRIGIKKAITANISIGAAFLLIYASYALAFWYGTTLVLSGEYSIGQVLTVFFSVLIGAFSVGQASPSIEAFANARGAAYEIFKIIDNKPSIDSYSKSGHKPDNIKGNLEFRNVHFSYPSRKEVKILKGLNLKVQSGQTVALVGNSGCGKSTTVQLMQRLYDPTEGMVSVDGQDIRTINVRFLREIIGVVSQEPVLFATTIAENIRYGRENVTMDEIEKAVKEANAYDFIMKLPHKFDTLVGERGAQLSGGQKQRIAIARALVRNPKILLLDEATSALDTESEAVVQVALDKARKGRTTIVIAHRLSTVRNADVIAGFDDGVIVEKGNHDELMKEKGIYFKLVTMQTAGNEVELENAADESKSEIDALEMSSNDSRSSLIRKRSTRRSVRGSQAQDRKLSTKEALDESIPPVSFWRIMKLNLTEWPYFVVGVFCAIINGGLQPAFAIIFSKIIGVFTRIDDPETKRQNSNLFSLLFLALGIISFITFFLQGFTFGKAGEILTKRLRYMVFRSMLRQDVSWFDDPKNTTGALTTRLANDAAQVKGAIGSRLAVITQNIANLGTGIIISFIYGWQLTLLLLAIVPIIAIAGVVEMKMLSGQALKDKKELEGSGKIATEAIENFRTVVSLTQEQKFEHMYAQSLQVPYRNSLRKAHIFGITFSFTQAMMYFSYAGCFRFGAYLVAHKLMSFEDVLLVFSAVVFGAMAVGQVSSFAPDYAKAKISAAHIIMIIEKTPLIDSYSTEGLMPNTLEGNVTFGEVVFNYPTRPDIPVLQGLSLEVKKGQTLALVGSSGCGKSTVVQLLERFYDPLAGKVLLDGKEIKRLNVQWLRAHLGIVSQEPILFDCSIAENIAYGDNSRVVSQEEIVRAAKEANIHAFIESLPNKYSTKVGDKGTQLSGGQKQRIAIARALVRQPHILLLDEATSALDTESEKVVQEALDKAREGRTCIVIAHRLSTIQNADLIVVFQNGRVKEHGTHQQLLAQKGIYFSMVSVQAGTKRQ
T1 sequence (P08183 whole entry): as above

Consider `CN1CCN(CCCN2c3ccccc3Sc3ccc(C(F)(F)F)cc32)CC1` [trifluoperazine], for which, in data set [1], the “Kp,uu (unbound drug concentration in CNS relative to plasma)” value was > 2. Besides, the “efflux ratio (ER)” value on human P-gp [2] is listed as > 3.
Turning to `OCCN1CCN(CCCN2c3ccccc3Sc3ccc(Cl)cc32)CC1` [perphenazine], the “Kp,uu (unbound drug concentration in CNS relative to plasma)” value in data set [1] is given as > 2. In addition, on human P-gp [2], the “efflux ratio (ER)” value was > 3.
Consider `Cc1cc2c(s1)Nc1ccccc1N=C2N1CCN(C)CC1` [olanzapine], for which, in the data set on P-gp (rat Mdr1a) (pH 7.4), the Papp A→B at 120 min came to 24 ± 3 ×10⁻⁶ cm/s and the Papp B→A at 120 min is 44 ± 3 ×10⁻⁶ cm/s. On P-gp (human MDR1), the Papp A→B at 120 min was 23 ± 4 ×10⁻⁶ cm/s and the Papp B→A at 120 min was 40 ± 3 ×10⁻⁶ cm/s.
In the case of `CNCC[C@@H](Oc1ccccc1C)c1ccccc1` [atomoxetine], the “Kp,uu (unbound drug concentration in CNS relative to plasma)” value in [1] was > 2. In addition, the “efflux ratio (ER)” value at human P-gp [2] is > 3.
With `CN(C)CCCC1(c2ccc(F)cc2)OCc2cc(C#N)ccc21` (stereo not shown) [citalopram], on human P-gp [3], the P-gp substrate identification entry is “P-gp substrates”.
As for `O[C@@H](COc1cccc2ncccc12)CN1CCN([C@@H]2c3ccccc3[C@@H]3[C@H](c4ccccc42)C3(F)F)CC1` [zosuquidar], the “effect on efflux transport of digoxin” value in the data set on rat Mdr1a P-gp (0.4 µM zosuquidar) is “completely blocked”. Further, in the data set on IPEC-J2 mock cells [4], the “effect on digoxin transport” value is on record as “did not affect digoxin transport”.
One may read the Papp as a coefficient for how fast a substance crosses the barrier. For the compound `C[C@H]1O[C@@H](O[C@H]2[C@@H](O)C[C@H](O[C@H]3[C@@H](O)C[C@H](O[C@H]4CC[C@@]5(C)[C@H](CC[C@@H]6[C@@H]5C[C@@H](O)[C@]5(C)[C@@H](C7=CC(=O)OC7)CC[C@]65O)C4)O[C@@H]3C)O[C@@H]2C)C[C@H](O)[C@@H]1O` [digoxin], in the data set with P-gp (rat Mdr1a) (pH 7.4, PB-A (apparent permeability in the efflux direction), late passages (14–16)), the Papp at 120 min was 16 ± 1 ×10⁻⁶ cm/s. In addition, the Papp A→B at 120 min in the data set on P-gp (rat Mdr1a) (setting [9]) stood at 0.35 ± 0.03 ×10⁻⁶ cm/s; with P-gp (rat Mdr1a) (pH 7.4, permeability in the A–B direction, early passages (5–7)), 0.37 ± 0.1 ×10⁻⁶ cm/s; in the data set with P-gp (rat Mdr1a) (pH 7.4, permeability in the A–B direction, late passages (14–16)) it was 0.68 ± 0.62 ×10⁻⁶ cm/s; at P-gp (human MDR1), 0.28 ± 0.03 ×10⁻⁶ cm/s; in [5] (read-out: PA-B (apparent permeability, apical to basolateral)) it was 0.05 ± 0.05 ×10⁻⁶ cm/s. Besides, in data set [5] (read-out: PB-A (apparent permeability, basolateral to apical)), the Papp B→A at 120 min is 0.13 ± 0.17 ×10⁻⁶ cm/s.
A word on the efflux ratio: it is a quotient of directional permeabilities that is used to spot active efflux. On to `CC[C@]1(O)C[C@@H]2CN(CCc3c([nH]c4ccccc34)[C@@](C(=O)OC)(c3cc4c(cc3OC)N(C)[C@H]3[C@@](O)(C(=O)OC)[C@H](OC(C)=O)[C@]5(CC)C=CCN6CC[C@]43[C@@H]65)C2)C1` [vinblastine], for which the Papp B→A at 120 min with P-gp (rat Mdr1a) (pH 7.4) amounted to 20 ± 5 ×10⁻⁶ cm/s; at P-gp (human MDR1) it was 19 ± 6 ×10⁻⁶ cm/s. Also, the Papp A→B at 120 min in the data set on P-gp (rat Mdr1a) (setting [9]) is 1.6 ± 0.2 ×10⁻⁶ cm/s; at P-gp (human MDR1), 1.5 ± 0.2 ×10⁻⁶ cm/s. Also, the efflux ratio at 120 min came to 12.8 with P-gp (rat Mdr1a) (IPEC-J2 rMdr1a monolayers) and 12.4 at P-gp (human MDR1). Further, the efflux ratio is listed as 13 with rat Mdr1a P-gp (Figure 5 comparison series), 12.5 with human MDR1 and 18.4 with rat Mdr1a.
Turning to `O=C1NC(=O)C(c2ccccc2)(c2ccccc2)N1` [phenytoin], the polarized transport entry on human P-gp [6] is on record as “no polarized transport could be observed”; with mouse Mdr1a it was “showed polarized transport”.
For the compound `COc1ccc(C[C@H](N)C(=O)N[C@H]2[C@@H](O)[C@H](n3cnc4c(N(C)C)ncnc43)O[C@@H]2CO)cc1` [puromycin], the “cell survival under selection” value was “survived the treatment” in the data set with rMDR1a-transfected cells and “died within three days” in the data set with IPEC-J2 mock cells [7].
For `CC[C@@H](C(N)=O)N1CCCC1=O` [levetiracetam], the polarized transport result is reported as “no polarized transport could be observed” on human P-gp [6] and “showed polarized transport” with mouse Mdr1a.
Turning to `OC[C@@H](O)[C@@H](O)[C@H](O)[C@H](O)CO` [mannitol], the Papp at 120 min was 0.25 to 0.44 ×10⁻⁶ cm/s in [8] and ~0.3 ×10⁻⁶ cm/s with P-gp (rat Mdr1a) (pH 7.4, paracellular permeability, IPEC-J2 rMdr1a monolayers, conclusion summary). Also, the Papp B→A at 120 min in the data set on P-gp (rat Mdr1a) (pH 7.4) was 0.44 ± 0.11 ×10⁻⁶ cm/s; at P-gp (human MDR1), 0.37 ± 0.04 ×10⁻⁶ cm/s. The Papp A→B at 120 min stood at 0.33 ± 0.12 ×10⁻⁶ cm/s with P-gp (rat Mdr1a) (setting [9]) and 0.25 ± 0.02 ×10⁻⁶ cm/s at P-gp (human MDR1). The results for the efflux ratio at 120 min in the data set on P-gp (rat Mdr1a) (IPEC-J2 rMdr1a monolayers) and at P-gp (human MDR1) were 1.5 and 1.4, respectively.
